We go through 4 molecules from US9828375B2, “4-position substituted pyrazolopyrimidine derivative, and use thereof in drug preparation” (Guangxi Wuzhou Pharmaceuticals (Group) Co., Ltd., priority 2012, dated 2017).

Like-named read-outs stand apart in the source and are kept apart here.

The subject of assay [1] is human leukemia cell line MV4-11. The settings on record: for in vivo tumor growth inhibition effect: oral intragastric q.d., MV4-11 tumors 400-500 mm^3 at start; for inhibition effect compared with positive control sorafenib: sorafenib 3 mg/kg q.d., MV4-11 model.
Description: The cell line used was human leukemia cell line MV4-11. The drug (Sorafenib) undergoing anti-leukemia clinical trial was used as the positive control.
NOD-SCID mice at age of 6 to 8 weeks were used, and MV4-11 cells were inoculated at the subcutaneous posterior ribs of the mice at a concentration of 1×10^7/0.1 mL/mouse; after the tumors grew to 400-500 mm^3 (for about 20 days), mice (n=6) were grouped and subject to oral intragastric administration.
Observation targets: Mouse weight and long and short diameters of tumor were measured every 3 days, and tumor volume (length×width^2×0.52) was calculated to observe for diarrhea, convulsion, rash, significant weight loss and other reactions.
For the next assay, the target named is EphA2 (Homo sapiens, UniProt P29317). In words: Kinase inhibition activity test, isotope labeling: EphA2. In kind it is biochemical. As to conditions: ATP 155 μM; read-out: EphA2 IC50 value (inhibitory activity value). The procedure:
The purpose of this experiment was to test the inhibitory activity of the compound of the invention for in vitro kinase with the isotope labeling method (the γ phosphate group on ATP was labeled). In this experiment, the in vitro activity inhibition of such kinases as FLT3, VEGFR2, FLT1, FLT4, RET, c-RAF, B-RAF, c-KIT, PDGFα, PDGFβ, FGFR2, FGFR1, EphA2, EphB2, SRC, ABL, ALK and Met was tested respectively. Staurosporine was reference molecule (or referred to as positive control). The kinase inhibition activity of the test compound was expressed by half-inhibitory concentration (IC50) or the kinase activity inhibition rate of the test compound at a concentration of 10 μM. The IC50 value could be obtained by calculating the kinase activity inhibition rate of the test compound at different concentrations.
20 mM 3-(N-morpholinyl)propanesulfonic acid (MOPS); 1 mM ethylenediaminetetraacetic acid (EDTA), 0.01% Brij 35 (Brij-35), 5% glycerol, 0.1% mercaptoethanol, 1 mg/mL bovine serum albumin (BSA), 10 mM manganous dichloride solution (MnCl2), 0.1 mg/mL glutamic acid/tyrosine (4:1) polypeptide (poly(Glu, Tyr)4:1), 50 μM EAIYAAPFAKKK (substrate of FLT3), 0.33 mg/mL myelin basic protein (substrate of VEGFR2), 250 μM KKKSPGEYVNIEFG (substrate of FLT1(h)), 500 μM GGEEEEYFELVKKKK (substrate of FLT4(h)), 250 μM KKKSPGEYVNIEFG (substrate of RET), 0.66 mg/mL myelin basic protein (substrate of C-RAF), 250 μM GGMEDIYFEFMGGKKK (substrate of c-Kit), 250 μM GGMEDIYFEFMGGKKK (substrate of PDGFα), 250 μM KKKSPGEYVNIEFG (substrate of FGFR1), […] GGEEEEYFELVKKKK (substrate of SRC), 50 μM EAIYAAPFAKKK (substrate of ABL), 250 μM KKKSPGEYVNIEFG (substrate of ALK), 250 μM KKKSPGEYVNIEFG (substrate of Met(h)), 10 mM magnesium acetate and γ-^33 P-ATP solution, stop buffer (3% phosphate buffer), washing buffer (75 mM phosphate solution), methanol, Filtermat A membrane, FLT3, VEGFR2, FLT3, VEGFR2, FLT1, FLT4, RET, c-RAF, B-RAF, c-KIT, PDGFRα, PDGFRβ, FGFR2, FGFR1, EphA2, EphB2, SRC, ABL, ALK, Met and other kinases, and the test compounds.
Buffers (8 mM MOPS with pH value of 7.0, 0.2 mM EDTA and 10 mM MnCl2), (5-10 mU) kinases to be tested (FLT3, VEGFR2, FLT1, FLT4, RET, c-RAF, B-RAF, c-KIT, PDGFRα, PDGFRβ, FGFR2, FGFR1, EphA2, EphB2, SRC, ABL, ALK and Met), substrates of kinases to be tested (refer to experimental materials), 10 mM magnesium acetate and γ-^33 P-ATP solution, and test compounds at different concentrations were added to a reaction tube orderly. […] Reaction was terminated with 5 μL 3% phosphate buffer finally, and 10 μL reaction solution was titrated to the Filtermat A membrane; solution was washed for 3 times with 75 mM phosphate solution with each time lasting 5 minutes, and then washed once with methanol. […]

Assay [2] relates to inter segmental blood vessels of transgenic zebrafish (FLK1-GFP). The experiment in a line: Angiogenesis inhibition activity test in transgenic zebrafish (FLK1-GFP). In kind it is in vivo. As to conditions: concentration of 1 ug/mL, compared with the control group. As for the experimental part:
The new blood vessel inhibition activity of the test compounds was expressed by the inhibition degree of the test compounds for the inter segmental blood vessels of zebrafish at concentrations of 10 ug/mL, 3 ug/mL and 1 ug/mL.
Acquisition of zebrafish embryos: The zebrafish used by this laboratory was fluorescent transgenic zebrafish (FLK1: GFP). Refer to Westerfield method for breeding and cultivation of zebrafish. The day before spawns were obtained, male and female zebrafish were paired at the ratio of 1:1. On the second day, the male and female zebrafish naturally mated and spawned at a temperature of about 28° C. under sufficient illumination. Enough zebrafish embryos were collected, washed, placed into embryo culture media, and put into a 28° C. incubator for culture. The survival of embryos was identified by morphological and phylogenetic standards, and dead embryos were white and taken out timely to prevent deterioration of water quality. […]
Result observation: Thirty one hours after the zebrafish embryos were fertilized, spawns were taken out and hatched zebrafish was peeled off; and then the hatched zebrafish was put onto slide, 1‰ tricaine solution was added to narcotize the fish body, and 1.5% methylcellulose was used to fix the fish body; and the inter segmental vessels (ISV) were observed, counted and photographed under a fluorescence microscope. […]

Chain of EphA2 (P29317 24-976): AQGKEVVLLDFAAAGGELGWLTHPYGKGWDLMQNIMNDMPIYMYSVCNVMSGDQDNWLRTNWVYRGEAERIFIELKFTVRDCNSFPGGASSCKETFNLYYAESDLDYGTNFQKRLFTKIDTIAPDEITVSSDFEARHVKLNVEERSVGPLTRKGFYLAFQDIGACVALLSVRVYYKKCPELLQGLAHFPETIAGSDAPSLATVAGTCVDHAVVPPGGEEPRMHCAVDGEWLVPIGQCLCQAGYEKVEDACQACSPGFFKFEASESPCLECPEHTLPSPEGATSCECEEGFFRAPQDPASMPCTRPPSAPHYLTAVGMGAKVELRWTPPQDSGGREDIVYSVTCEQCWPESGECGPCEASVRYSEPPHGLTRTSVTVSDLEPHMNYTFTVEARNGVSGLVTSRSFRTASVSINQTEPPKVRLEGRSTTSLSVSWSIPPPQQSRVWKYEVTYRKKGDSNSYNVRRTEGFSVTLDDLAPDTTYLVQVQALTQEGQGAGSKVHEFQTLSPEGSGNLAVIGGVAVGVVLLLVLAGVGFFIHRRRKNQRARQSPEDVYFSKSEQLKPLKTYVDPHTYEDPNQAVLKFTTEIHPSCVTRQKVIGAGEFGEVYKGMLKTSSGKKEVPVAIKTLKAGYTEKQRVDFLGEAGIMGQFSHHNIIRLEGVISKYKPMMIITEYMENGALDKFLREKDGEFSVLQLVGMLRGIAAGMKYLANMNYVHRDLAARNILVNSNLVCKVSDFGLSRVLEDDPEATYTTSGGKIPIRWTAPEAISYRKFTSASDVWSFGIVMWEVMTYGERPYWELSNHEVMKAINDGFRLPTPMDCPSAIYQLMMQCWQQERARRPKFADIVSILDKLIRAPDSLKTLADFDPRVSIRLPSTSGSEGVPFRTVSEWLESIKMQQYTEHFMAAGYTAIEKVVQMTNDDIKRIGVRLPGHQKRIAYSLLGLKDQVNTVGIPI

`O=C(Nc1ccc(Oc2ncnc3[nH]ncc23)cc1)Nc1ccc(Cl)c(C(F)(F)F)c1` [4a-2]: the “in vivo tumor growth inhibition effect” value in assay [1] (daily dose of 3 mg/kg or above) is “obviously inhibit tumor growth or extinct tumor completely”. For the same molecule, the “inhibition effect compared with positive control sorafenib” value in assay [1] is listed as “superior to the positive control (sorafenib)”. For the same molecule, the IC50 – broadly, the concentration needed to halve the response being measured – at EphA2 was below 10 µM.

In the case of `O=C(Nc1ccc(Oc2ncnc3[nH]ncc23)cc1)Nc1cccc(C(F)(F)F)c1` [4a-6], the “angiogenesis inhibition for FLK1 transgenic zebrafish” value in assay [2] is “inhibit angiogenesis of zebrafish very well”. At EphA2, the IC50 came out at 0.056 µM.

As for `CC(C)(C)c1cc(NC(=O)Nc2ccc(Oc3ncnc4[nH]ncc34)cc2)on1` [4a-25], on EphA2, the IC50 is below 10 µM.

With `CC(C)(C)c1cc(NC(=O)Nc2ccc(Oc3ncnc4[nH]ncc34)c(F)c2)no1` [4a-31], the “in vivo tumor growth inhibition effect” value in assay [1] (daily dose of 1 mg/kg) is “obviously inhibit tumor growth”; in assay [1] (daily dose of 3 mg/kg or above), “extinct tumor completely”. Moreover, the “inhibition effect compared with positive control sorafenib” value in assay [1] was “superior to the positive control (sorafenib)”. Further, in assay [2], the “angiogenesis inhibition for FLK1 transgenic zebrafish” value is recorded as “inhibit angiogenesis of zebrafish very well”. The IC50 at EphA2 was below 10 µM.
